In PubChem BioAssay AID504522 (The Scripps Research Institute Molecular Screening Center, 2011):
Active and inactive are the calls of the source. No rule for the calls is given here.

Columns and labels:
Experiment in all cases: SILAC ABPP selectivity across cellular hydrolases – LC-MS, mouse cells, selectivity assay for LYPLA1 inhibitor project, late-stage follow-up (AID 504522)
AADACL1 = conditions: serine hydrolase panel, stronger effect = lower value
ABHD10 = conditions: serine hydrolase panel, stronger effect = lower value
ABHD11 = conditions: serine hydrolase panel, stronger effect = lower value
ABHD12 = conditions: serine hydrolase panel, stronger effect = lower value
ABHD6 = conditions: serine hydrolase panel, stronger effect = lower value
ACOT1 = conditions: serine hydrolase panel, stronger effect = lower value
ACOT2 = conditions: serine hydrolase panel, stronger effect = lower value
ACOT7 = conditions: serine hydrolase panel, stronger effect = lower value
APEH = conditions: serine hydrolase panel, stronger effect = lower value
BAT5 = conditions: serine hydrolase panel, stronger effect = lower value
CTSA = conditions: serine hydrolase panel, stronger effect = lower value
DDHD1 = conditions: serine hydrolase panel, stronger effect = lower value
DPP4 = conditions: serine hydrolase panel, stronger effect = lower value
DPP7 = conditions: serine hydrolase panel, stronger effect = lower value
DPP8 = conditions: serine hydrolase panel, stronger effect = lower value
DPP9 = conditions: serine hydrolase panel, stronger effect = lower value
ESD = conditions: serine hydrolase panel, stronger effect = lower value
FAAH = conditions: serine hydrolase panel, stronger effect = lower value
FAM108B1 = conditions: serine hydrolase panel, stronger effect = lower value
FASN = conditions: serine hydrolase panel, stronger effect = lower value
IAH1 = conditions: serine hydrolase panel, stronger effect = lower value
LACTB = conditions: serine hydrolase panel, stronger effect = lower value
LIPA = conditions: serine hydrolase panel, stronger effect = lower value
LYPLA1 = conditions: serine hydrolase panel, stronger effect = lower value
LYPLA2 = conditions: serine hydrolase panel, stronger effect = lower value
LYPLA3 = conditions: serine hydrolase panel, stronger effect = lower value
PAFAH1B2 = conditions: serine hydrolase panel, stronger effect = lower value
PAFAH1B3 = conditions: serine hydrolase panel, stronger effect = lower value
PARL = conditions: serine hydrolase panel, stronger effect = lower value
PLA2G6 = conditions: serine hydrolase panel, stronger effect = lower value
PNPLA6 = conditions: serine hydrolase panel, stronger effect = lower value
PNPLA8 = conditions: serine hydrolase panel, stronger effect = lower value
PPME1 = conditions: serine hydrolase panel, stronger effect = lower value
PRCP = conditions: serine hydrolase panel, stronger effect = lower value
PREPL = conditions: serine hydrolase panel, stronger effect = lower value
[1] = molecular target: Platelet-activating factor acetylhydrolase 2, cytoplasmic (Mus musculus) (UniProt Q8VDG7); conditions: serine hydrolase panel, PAFAH2, stronger effect = lower value
[2] = molecular target: Prolyl endopeptidase (Mus musculus) (UniProt Q9QUR6); conditions: serine hydrolase panel, PREP, stronger effect = lower value
SERHL = conditions: serine hydrolase panel, stronger effect = lower value
SIAE = conditions: serine hydrolase panel, stronger effect = lower value

Sequence of Prolyl endopeptidase (Mus musculus) (Q9QUR6 whole entry, looked up): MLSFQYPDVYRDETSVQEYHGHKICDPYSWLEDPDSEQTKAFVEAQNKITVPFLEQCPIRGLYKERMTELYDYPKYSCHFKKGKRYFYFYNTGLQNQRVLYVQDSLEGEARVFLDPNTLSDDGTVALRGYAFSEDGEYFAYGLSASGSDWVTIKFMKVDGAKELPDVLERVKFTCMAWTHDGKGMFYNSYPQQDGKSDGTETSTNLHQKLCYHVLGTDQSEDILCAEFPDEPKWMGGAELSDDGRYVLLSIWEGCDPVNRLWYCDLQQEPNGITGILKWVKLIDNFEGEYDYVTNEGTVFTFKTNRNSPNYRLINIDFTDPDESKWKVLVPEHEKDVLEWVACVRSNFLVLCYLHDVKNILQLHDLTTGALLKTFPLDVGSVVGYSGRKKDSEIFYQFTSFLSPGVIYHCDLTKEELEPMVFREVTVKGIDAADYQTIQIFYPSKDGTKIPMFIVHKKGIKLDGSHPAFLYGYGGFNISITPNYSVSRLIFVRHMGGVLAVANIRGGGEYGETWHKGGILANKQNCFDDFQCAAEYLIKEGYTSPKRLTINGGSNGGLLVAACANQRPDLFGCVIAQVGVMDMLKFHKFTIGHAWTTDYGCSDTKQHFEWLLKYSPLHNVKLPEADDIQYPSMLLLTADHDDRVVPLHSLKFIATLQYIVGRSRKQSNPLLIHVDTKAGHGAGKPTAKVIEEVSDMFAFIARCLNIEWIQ
Sequence of Platelet-activating factor acetylhydrolase 2, cytoplasmic (Mus musculus) (Q8VDG7 whole entry, looked up): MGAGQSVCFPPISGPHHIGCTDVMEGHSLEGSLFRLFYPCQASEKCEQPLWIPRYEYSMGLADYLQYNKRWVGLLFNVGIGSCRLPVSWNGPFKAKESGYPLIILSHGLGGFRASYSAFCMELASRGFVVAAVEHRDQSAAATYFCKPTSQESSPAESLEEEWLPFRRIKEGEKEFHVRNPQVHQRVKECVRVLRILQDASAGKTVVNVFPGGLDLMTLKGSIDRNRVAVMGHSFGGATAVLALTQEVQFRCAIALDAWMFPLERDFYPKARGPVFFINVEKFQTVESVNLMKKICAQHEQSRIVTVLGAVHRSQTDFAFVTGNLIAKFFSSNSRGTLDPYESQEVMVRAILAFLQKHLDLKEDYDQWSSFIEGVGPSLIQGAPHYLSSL

In the case of `COCC1CCCCN1C(=O)n1ncc(C(O)(c2ccccc2)c2ccccc2)n1` (centres undefined), the SILAC ratio (probe-treated/control) (AADACL1) is reported as 1.3 (inactive), the SILAC ratio (probe-treated/control) (ABHD10) is reported as 1.3 (inactive) and the SILAC ratio (probe-treated/control) (ABHD11) is reported as 0.02. For the same compound, the SILAC ratio (probe-treated/control) (ABHD12) was 1.3 (inactive), the SILAC ratio (probe-treated/control) (ABHD6) was 0.9 (inactive) and the SILAC ratio (probe-treated/control) (ACOT1) was 1 (inactive). For the same compound, the SILAC ratio (probe-treated/control) (ACOT2) was 1.1 (inactive), the SILAC ratio (probe-treated/control) (ACOT7) was 1.5 (inactive) and the SILAC ratio (probe-treated/control) (APEH) was 1.4 (inactive). The SILAC ratio (probe-treated/control) (BAT5) was 1.5 (inactive), the SILAC ratio (probe-treated/control) (CTSA) was 1.3 (inactive) and the SILAC ratio (probe-treated/control) (DDHD1) was 2 (inactive). For the same compound, the SILAC ratio (probe-treated/control) (DPP4) was 1 (inactive), the SILAC ratio (probe-treated/control) (DPP7) was 1.3 (inactive) and the SILAC ratio (probe-treated/control) (DPP8) was 1.5 (inactive). The SILAC ratio (probe-treated/control) (DPP9) was 1.5 (inactive), the SILAC ratio (probe-treated/control) (ESD) was 1.4 (inactive) and the SILAC ratio (probe-treated/control) (FAAH) was 1.5 (inactive). For the same compound, the SILAC ratio (probe-treated/control) (FAM108B1) was 1.3 (inactive), the SILAC ratio (probe-treated/control) (FASN) was 1.5 (inactive) and the SILAC ratio (probe-treated/control) (IAH1) was 1.4 (inactive). For the same compound, the SILAC ratio (probe-treated/control) (LACTB) was 1.5 (inactive), the SILAC ratio (probe-treated/control) (LIPA) was 1.4 (inactive) and the SILAC ratio (probe-treated/control) (LYPLA1) was 1.5 (inactive). The SILAC ratio (probe-treated/control) (LYPLA2) was 1.5 (inactive), the SILAC ratio (probe-treated/control) (LYPLA3) was 1.5 (inactive) and the SILAC ratio (probe-treated/control) (PAFAH1B2) was 1.6 (inactive). The SILAC ratio (probe-treated/control) (PAFAH1B3) was 1.3 (inactive), the SILAC ratio (probe-treated/control) (PARL) was 1.5 (inactive) and the SILAC ratio (probe-treated/control) (PLA2G6) was 1.4 (inactive). The SILAC ratio (probe-treated/control) (PNPLA6) was 1.4 (inactive), the SILAC ratio (probe-treated/control) (PNPLA8) was 1.3 (inactive) and the SILAC ratio (probe-treated/control) (PPME1) was 1.5 (inactive). For the same compound, the SILAC ratio (probe-treated/control) (PRCP) was 1.5 (inactive), the SILAC ratio (probe-treated/control) (PREPL) was 1.2 (inactive) and the SILAC ratio (probe-treated/control) [1] was 1.3 (inactive). The SILAC ratio (probe-treated/control) [2] was 1.4 (inactive), the SILAC ratio (probe-treated/control) (SERHL) was 1.5 (inactive) and the SILAC ratio (probe-treated/control) (SIAE) was 1.5 (inactive).
